From patent publication US20060128738A1, “Treatment of interstitial cystitis using cannabinoid analogs” (Indevus Pharmaceuticals, Inc., priority 2004, published 2006)

Test system: cyclophosphamide-induced bladder overactivity
Test: Subacute bladder irritation by cyclophosphamide, cystometrograms, i.v. administration
Type: in vivo
Details: CYP-treated rats, after administration
Method: Cystometrograms (CMGs) are performed under urethane anesthesia (1 g/kg s.c.) using a catheter inserted into the bladder through the bladder dome via a midline abdominal incision. Saline is infused at a rate of 0.04 ml/min to elicit repetitive bladder contractions. Effects of intravenous (i.v.) injection of cannabinoid analogs and analogs of (6aR,10aR)-Δ^8-Tetrahydrocannabinol-11-oic Acids on bladder overactivity induced by either intravesical administration of acetic acid solution or one day treatment with cyclophosphamide are investigated. […] Thus, these Compound analogs can be effective for the treatment of pain and urinary frequency symptoms in patients with painful bladder syndrome/interstitial cystitis.
One day after intraperitoneal injection of cyclophosphamide (CYP, 150 mg/kg), control CMGs are recorded for 1 to 2 hour prior to i.v. administration of Compound analog or vehicle. See, example i, above. Following administration of Compound analog, changes in cystometric parameters such as ICIs, MVP, PT and BP are recorded to evaluate the effects of Compound analog on cyclophosphamide-induced bladder overactivity.

CCCCCCC(C)(C)c1cc(O)c2c(c1)OC(C)(C)[C@@H]1CC=C(C(=O)O)C[C@@H]21 [IP-751]
No significant changes: change in baseline pressure (BP) | change in maximum voiding pressure (MVP) | change in pressure threshold (PT)
